Data: patent US20120190751A1, “COMPOUNDS FOR TREATMENTS OF INFLAMMATION” (ANA-MAR AB, priority 2009, published 2012)
Counter-ions that a name gives are not always drawn.

Target: 5HT2B receptor (Homo sapiens, UniProt P41595)
Test: not given
Details: 5HT2B receptor antagonists, Table 1; cited from earlier work

5HT2B receptor, sequence (P41595 whole entry): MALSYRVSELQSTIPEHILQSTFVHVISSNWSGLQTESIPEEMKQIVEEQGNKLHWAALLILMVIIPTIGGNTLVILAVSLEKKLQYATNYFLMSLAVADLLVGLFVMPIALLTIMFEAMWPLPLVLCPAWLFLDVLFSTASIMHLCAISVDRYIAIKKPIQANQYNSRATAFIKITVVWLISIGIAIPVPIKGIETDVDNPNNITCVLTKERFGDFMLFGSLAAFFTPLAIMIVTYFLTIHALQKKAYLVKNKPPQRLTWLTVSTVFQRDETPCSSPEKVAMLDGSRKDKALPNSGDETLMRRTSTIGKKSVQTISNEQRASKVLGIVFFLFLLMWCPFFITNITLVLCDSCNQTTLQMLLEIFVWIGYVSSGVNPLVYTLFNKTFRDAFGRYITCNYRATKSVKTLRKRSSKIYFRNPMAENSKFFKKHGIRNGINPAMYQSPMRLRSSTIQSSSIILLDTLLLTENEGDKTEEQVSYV

Row | SMILES | Affinity
1 | CSc1cc2c(cc1C(F)(F)F)N(C(=O)Nc1cccnc1)CC2 [SB 221284, 5-(methylthio)-1-(3-pyridylcarbamoyl-6-trifluoromethyl)indoline] | 8.6 pKi
2 | CN1CCC2CN3CCc4cccc(c43)C2C1 (single isomer, unassigned; (+)) [SDZ SER-082, (+)-cis-4,5,7a,8,9,10,11,11a-octahydro-7H-10-methylindolo[1,7-bc][2,6]-naphthyridine] | 6.7 pKi
3 | COc1ccc2cccc(CCNC(C)=O)c2c1 [agomelatine, N-[2-(7-methoxynaphthalen-1-yl)ethyl]acetamide] | 6.6 pKi
4 | CC(C)n1cc2c3c(cccc31)[C@H]1CC(C(=O)NC3CCCCC3)CN(C)[C@@H]1C2 (stereo partly drawn) [amesergide, N-Cyclohexyl-1-isopropyl-6-methylergoline-8-carboxamide] | 8.0 pKi
5 | Cc1cc([N+](=O)[O-])c(N2CCN(Cc3ccccc3)CC2)cc1N [EGIS-7625, 1-benzyl-4-[(2-nitro-4-methyl-5-amino)-phenyl]-piperazine] | 9.0 pKi
6 | CC(C)c1cc(-c2ccc(F)c3ccccc23)nc(N)n1 [RS-127445-190] | 9.5 pKi
7 | c1cnc(N2CCN(Cc3ccc4c(c3)OCO4)CC2)nc1 [piribedil, 2-[4-(1,3-benzodioxol-5-ylmethyl)piperazin-1-yl]pyrimidine] | 5.9 pKi
8 | CCCCN1CCC(CNC(=O)c2c3n(c4ccccc24)CCCO3)CC1 [piboserod, N-((1-Butyl-4-piperidyl)-methyl)-3,4-dihydro-2H-(1,3)oxazino(3,2-a)-indole-10-carboxamide] | 6.6 pKi
9 | Cc1nc(-c2ccc(-c3ccc(C(=O)N4CCc5cc6c(cc54)C4(CCN(C)CC4)CO6)cc3)c(C)c2)no1 [SB 224289, 1′-methyl-5-[[2′-methyl-4′-(5-methyl-1,2,4-oxadiazol-3-yl)biphenyl-4-yl]carbonyl]-2,3,6,7-tetrahydrospiro[furo[2,3-f]indole-3,4′-piperidine hydrochloride] | 5.9 pKi
10 | Oc1ccc2[nH]cc(CCCCN3CC=C(c4ccccc4)CC3)c2c1 [roxindole, 3-[4-(4-phenyl-3,6-dihydro-2H-pyridin-1-yl)butyl]-1H-indol-5-ol] | 7.5 pKi
11 | OC(c1ccccc1)C1CCN(CCc2ccccc2)CC1 (stereo not drawn) [MDL-11,939, α-phenyl-1-(2-phenylethyl)-4-piperidinemethanol] | 5.5 pKi
12 | CN1CCc2cccc3c2C1Cc1ccc(O)c(O)c1-3 (stereo not drawn) [apomorphine, 5,6,6a,7-Tetrahydro-6-methyl-4H-dibenzo[de,g]quinolin-10,11-diol] | 6.9 pKi
13 | CCN(CC)C(=O)N[C@H]1C[C@@H]2c3cccc4[nH]cc(c34)C[C@H]2N(C)C1 [terguride, N,N-diethyl-N′-[(8α)-6-methylergolin-8-yl]urea] | 8.2 pKi
14 | COc1cc(OC)c(C(=O)CCCCN2CCC3(CC2)NC(=O)NC3=O)cc1NS(=O)(=O)c1ccc(C(F)(F)F)cc1 [RS-102221] | 6.0-6.1 pKi
15 | CC(O)C(C)OC(=O)C1CC2c3cccc4[nH]cc(c34)CC2N(C)C1 (stereo not drawn) [LY86057] | 7.9 pKi
16 | Cn1ccc2cc3c(cc21)CCN3C(=O)Nc1cccnc1 [SB 206553, 5-methyl-1-(3-pyridylcarbamoyl)-1,2,3,5-tetrahydrolpyrrolo[2,3-f]indole] | 7.6-8.5 pKi
17 | NCCC(Oc1ccc(C(F)(F)F)cc1)c1ccccc1 (stereo not drawn) [norfluoxetine] | 5.3 pKi
18 | COc1cccc(CCc2ccccc2OCC(CN(C)C)OC(=O)CCC(=O)O)c1 (stereo not drawn) [sarpogrelate, 4-[1-dimethylamino-3-[2-[2-(3-methoxyphenyl)ethyl]phenoxy]-propan-2-yl]oxy-4-oxo-butanoic acid] | 6.6 pKi
19 | O=C1NCN(c2ccccc2)C12CCN(CC1COc3ccccc3O1)CC2 (stereo not drawn) [spiroxatrine, 8-(7,10-dioxabicyclo[4.4.0]deca-1,3,5-trien-8-ylmethyl)-4-phenyl-2,4,8-triazaspiro[4.5]decan-1-one] | 6.3-6.8 pKi
20 | O=C(CCCN1CCC2(CC1)C(=O)NCN2c1ccccc1)c1ccc(F)cc1 [spiperone, 8-[4-(4-fluorophenyl)-4-oxo-butyl]-1-phenyl-1,3,8-triazaspiro[4.5]decan-4-one] | 5.9-6.5 pKi
21 | Cc1nc2sccn2c(=O)c1CCN1CCC(=C(c2ccc(F)cc2)c2ccc(F)cc2)CC1 [ritanserin, 4-[2-[4-[bis(4-fluorophenyl)methylidene]-1-piperidyl]ethyl]-3-methyl-9-thia-2,6-diazabicyclo[4.3.0]nona-1,3,7-trien-5-one] | 8.7-9.2 pKi
22 | Cc1cc2c(cc1Cl)N(C(=O)Nc1cccc3ncccc13)CC2 [SB 215505, 6-chloro-5-methyl-1-(5-quinolylcarbamoyl)indoline] | 8.3 pKi
23 | Cn1ccc2cc(NC(=O)Nc3cccnc3)ccc21 [SB 200646, N-(1-Methyl-1H-indol-5-yl)-N′-3-pyridinylurea] | 7.4 pKi
24 | CC(C)C[C@H]1C(=O)N2CCC[C@H]2[C@]2(O)O[C@](NC(=O)[C@@H]3C=C4c5cccc6[nH]c(Br)c(c56)C[C@H]4N(C)C3)(C(C)C)C(=O)N12 [bromocriptine] | 7.3 pKi
25 | COc1cc2c(cc1C(F)(F)F)N(C(=O)Nc1cc(F)cc(-c3cccnc3)c1)CC2 [SB 228357, 1-5[-fluoro-3-(3-pyridyl)phenyl-carbamoyl]-5-methoxy-6-trifuoromethylindoline] | 8.0-8.1 pKi

Same assay, conditions: cited from earlier work

Row | SMILES | Affinity
26 | CC(O)C(C)OC(=O)[C@@H]1C[C@@H]2c3cccc4c3c(cn4C(C)C)C[C@H]2N(C)C1.O=C(O)/C=C\C(=O)O (stereo partly drawn) [LY53857, 6-Methyl-1-(1-methylethyl)ergoline-8β-carboxylic acid 2-hydroxy-1-methylpropyl ester maleate salt] | 8.2 pKi
27 | CC(C)c1cc(-c2ccc(F)c3ccccc23)nc(N)n1 [RS-127445] | 9.0 pKi
28 | Cc1cc2c(cc1Cl)N(C(=O)Nc1ccc(Oc3cccnc3C)nc1)CC2 [SB 242084, 6-chloro-5-methyl-1-[6-(-methylpyridin-3-yloxy)pyridin-3-ylcarbomyl]indoline] | 6.8-7.0 pKi

System: rat synoviocytes
Test: IL-6 release from LPS-stimulated rat synoviocytes
Type: cell-based
Details: 1 μM 5-HT + LPS 50 ng/ml; test substance 0.1, 1 or 10 μM; 72 hours; FIG. 7A
Procedure: Pannus from the inflamed knee of rats with antigen-induced arthritis (AIA) (see description of this model below; Andersson, S. E et al., (1998), J. Rheumatology 25: 1772-1777) was isolated three to five days after challenge, stored in PBS supplemented with 100 U/ml Penicillin-Streptomycin (PEST, Invitrogen Corporation) and 2.5 μg/ml Fungizone (Amphotericin B, Invitrogen) until it was further processed within a couple of hours. The PBS was discarded and the tissue cut in small pieces followed by digestion in a collagenase solution (400 U/ml; type 1 CLS-1, Worthington) for 3 hours at 37° C., 5% CO2. The suspension was filtered through a nylon mesh (70 μm), washed with tissue culture medium (RPMI-1640 with L-glutamine, Invitrogen, supplemented with 10% fetal bovine serum (FBS) and 100 U/ml PEST and 2.5 μg/ml Fungizone) and centrifuged (257 g). The cells were resuspended in tissue culture medium and seeded in cell culture flasks (T25, TPP). After overnight culture, nonadherent cells were removed by exchanging the medium, the cells were incubated at 37° C., 5% CO2, the medium was exchanged every third day until confluence was reached (7-10 days). The culture consisted of a mixed cell population with the principal constituents being fibroblasts and macrophages (Andersson, S. E. et al. (2000), Eur. J. Pharm. Sci 9: 333-343).
The cells were counted and reseeded at a density of 10000 cells/0.2 ml in 96-well cell culture plates (Nunc). After overnight culture the cells were stimulated with 50 ng/ml Lipopolysaccharide (LPS, E. coli 055:B5, Sigma) with simultaneous addition of 0.1, 1 and 10 μM N-(2-chloro-3,4-dimethoxybenzylideneamino)guanidine and 1 μM of 5-HT2 receptor agonists (triplicates). The cells were incubated for 72 hours after which the supernatants were collected and analyzed for IL-6 (OptEIA™ Set Rat IL-6). The effect of treatment on cell viability was determined using the cell proliferation reagent, WST-1 (Roche Diagnostics).
Inflamed knee joints of rats with antigen-induced arthritis (AIA) were dissected four days after intra-articular challenge with antigen. Freshly isolated pannus tissue was collected in phosphate-buffered saline (PBS) supplemented with 100 U/ml penicillin, streptomycin (PEST, Invitrogen) and 2.5 μg/ml Fungizone (Amphotericin B, Invitrogen), finely minced with a pair of scissors and digested with 400 U/ml collagenase (type 1 CLS-1, Worthington) in RPMI 1640 (Gibco) supplemented with PEST and fungizone (2.5 μg/ml) for 3 hours. The cell suspension was filtered through a 70 μm nylon mesh and the cells collected by centrifugation at 257×g, 10 min. The cells were resuspended in RPMI 1640 supplemented with 10% FBS (Gibco), PEST and fungizone (culture medium), plated in T25 flasks (TPP Cat#90026). After overnight incubation nonadherent cells were removed and the culture medium was replaced every third day until the cells approached confluency (normally achieved within 7-10 days). At near-confluency, the cells were washed with PBS and harvested by trypsination. After washing in PBS the cells were resuspended in culture medium and seeded at 10.000 cells/well/0.2 ml in 96 well plates (Nunc cat#167008). After overnight culture the culture medium was replaced with fresh medium and 50 ng/ml LPS (Sigma, L6529) together with different concentrations of 5-HT, 5-HT2 receptor agonists and/or antagonists and N-(2-chloro-3,4-dimethoxybenzylideneamino)guanidine. The cells were incubated for 72 hours after which the supernatants were collected and analyzed for IL-6 (BD OptEIA™ Set). The effect of treatment on cell viability was determined using the cell proliferation reagent, WST-1 (Roche Diagnostics). In another experiment rat synoviocytes were incubated with 50 ng/ml LPS for 2 or 22 hours were after the levels of 5-HT was analysed in the cell culture medium using a Serotonin ELISA kit (IBL International, RE59121). We also incubated rat synoviocytes with 5-HT (10 μM) and measured the gene expression of 5-HT2B and 5-HT2C.

Row | SMILES | IL-6 release induced by 5-HT and LPS
29 | CC(C)c1cc(-c2ccc(F)c3ccccc23)nc(N)n1 [RS-127445] | clearly reduced the IL-6 release
30 | Cc1cc2c(cc1Cl)N(C(=O)Nc1ccc(Oc3cccnc3C)nc1)CC2 [SB 242084, 6-chloro-5-methyl-1-[6-(-methylpyridin-3-yloxy)pyridin-3-ylcarbomyl]indoline] | clearly reduced the IL-6 release

Same assay, conditions: 1 μM agonist in the presence of LPS 50 ng/ml; 72 hours

Row | SMILES | IL-6 release on agonist stimulation
31 | NCCc1c[nH]c2ccc(O)cc12 [Example 5-HT, 5-Hydroxytryptamine] | clear increase in IL-6 release
32 | CC(N)Cc1c[nH]c2ccc(OCc3cccs3)cc12 (stereo not drawn) [BW 723C86] | induces a response in IL-6 production

System: antigen-induced arthritis
Test: not given
Details: Andersson et al. 2000; cited from earlier work

Row | SMILES | effect in the AIA model (literature)
33 | CN(Cc1cnc2nc(N)nc(N)c2n1)c1ccc(C(=O)N[C@@H](CCC(=O)O)C(=O)O)cc1 [methotrexate] | anti-arthritic effect
